{"source": "patent US10675293B2", "about": "“Nucleoside agents for the reduction of the deleterious activity of extended nucleotide repeat containing genes” (The Board of Trustees of the Leland Stanford Junior …, priority 2015, dated 2020)", "key": {"[1]": {"test_system": "Q44-GFP", "experiment": "PolyQ-tagged GFP reporter in HEK293 cells, Q44-GFP", "type": "cell-based", "conditions": "48 hours after transfection", "text": "CAG repeats and part of the flanking region in the first exon of Htt gene were PCR amplified from cDNA of HD patient lymphoblastoid cells containing one normal and one mutant allele (Q22 and Q44) with additional flanking restriction enzyme sites NheI. The PCR fragments were than in-frame fused with pEGFP-C1 at the end of the EGFP gene to express polyQ tagged GFP.\nNormal length of poly Q (Q20) and pathogenic length of poly Q(Q44) were in-frame fused at the amino-terminus of eGFPC1 protein to generate Q44- and Q20-GFP (FIG. 8A). The plasmid carrying the polyQ tagged GFP was transfected into HEK 293 cells with greater than 90% transfection efficiency.\nHEK293 cells were transiently transfected with the above mentioned GFP constructs. Five hours after transfection, cells were split among the wells of a 24-well plate and various concentrations of HD101 were added into the wells. 48 hours after transfection, cells were washed with PBS, fixed with 4% paraformaldehyde, and then nuclear stained with DAPI. The cell images were taken by fluorescent microscope (FIG. 9A) and the GFP and DAPI intensity of each field were quantitated using software Image Pro 6.2."}, "[2]": {"molecular_target": "T1, Supt4h-GL1 / NGN-GL2 interaction (Homo sapiens, UniProt O00267+P63272)", "T1 construct": "the amino terminal domain of Supt5h (NGN); expressed in transfected cells; host or cells: M2-8, a clone of 293-R1 (HEK 293), RSL1-induced", "experiment": "Split Gaussia luciferase complementation assay in M2-8 (HEK-293) cells", "type": "cell-based", "conditions": "M2-8 cells, RSL1 150 nM", "description": "ii: M2-8 is a cloned 293-R1 cell which can inducibly express pNEBR-X1-Supt4h-G1-NGN-G2 by addition of RSL1. Two point mutations (M431 and M1101) were introduced to the GL1 and GL2 for better stability according to “A high-throughput cell-based Gaussia luciferase reporter assay for identifying modulators of fibulin-3 secretion” published on J Biomol Screen. 2013 July; 18(6):647-58. The cell line was selected by Hygromycin.\nPlasmids harboring the Gluc1 and Gluc2 were co-transfected in a 1:1 ratio into 293-R1 cells plated on tissue culture treated 24-well plates using Lipofectamine 2000 according to the manufacturer's instruction. […] Signal intensities (integrated 100 ms) were read on Tecan Infinite M200 or M1000.\nHuman genes encoding the Supt4h protein or the amino terminal domain of Supt5h (NGN) were each fused with genes that encode subunits (GLuc1 or GLuc2) of Gaussia princeps luciferase to generate Supt4h-GL1 and NGN-GL2. […] The Gausssia luciferase substrate, native Coelenterazine, was added at a final concentration of 10 μg/ml to extracts of cells containing the indicated constructs and the magnitude of luminescence was determined using a luminometer (Tecan Infinite M200) that detects light emitted by luciferase. […] The luciferase activity that is detected is very specific and results only from interaction between the Supt4h and NGN. […]"}, "[3]": {"test_system": "mutant Huntingtin protein", "experiment": "Western blot of mutant HTT in Huntington's disease patient iPSC ND36999", "type": "cell-based, human", "conditions": "iPSC with 180 CAG repeats, 24 hr", "description": "(§1) Cell samples were lysed in 30 mM Tris-HCl, pH 8.0, 5 mM NaCl, 0.1% Triton X-100 for 10 min on ice. The supernatants from spinning (14 k rpm for 10 min) were collected. The protein concentrations were determined by BCA assay (Pierce, ThermoFisher). Equal amounts of protein were loaded onto 4-12% gel. After electrophoresis, the gels were transferred to nitrocellulose membranes by wet transfer at 35V for 16 hr. The protein level of mutant HTT, total HTT and tubulin were determined by immunoblotting with anti-poly Glutamine (MAB1574 from Millipore), anti-Huntingtin protein (MAB2166 from Millipore) and anti-alpha tubulin (AJ1034a from ABGENT). Blots were imaged on a Li-Cor Odyssey infrared imager. The bands intensities were determined by Li-Cor Odyssey software.\n(§2) To test whether the nucleoside 6-Azauridine (HD101) and (−)-6-Azauridine 2′,3′,5′-triacetate (HD106) can affect the expression of proteins with long polyQ domains, one iPSC (induced pluripotent stem cell) line ND36999, which was derived from a Huntington's disease patient who carries one allele of mutant htt gene with 180 CAG repeats, was purchased from the Coriell Institute. The iPSCs were plated into a 24-well plate coated with Matrigel. […] Cells were lysed and the protein concentrations were determined by BCA assay. […] The image (FIG. 10) was taken and the quantification was made by Li-Cor Odyssey imaging system."}, "[4]": {"test_system": "total Huntingtin protein", "experiment": "Western blot of total HTT in Huntington's disease patient iPSC ND36999", "type": "cell-based, human", "conditions": "iPSC with 180 CAG repeats, 24 hr", "description": "as §1, §2"}}, "note": "Entries after “also recorded” stand apart in the source; their conditions may differ.", "data": [{"smiles": "O=c1cnn([C@@H]2O[C@H](CO)[C@@H](O)[C@H]2O)c(=O)[nH]1", "note": "[HD101, 6-Azauridine]", "values": [{"measurement": "Q44-GFP expression (GFP intensity normalized with DAPI)", "setting": "[1]; higher concentration", "value": "down regulating both Q20 and Q44-GFP significantly"}, {"measurement": "Q44-GFP expression (GFP intensity normalized with DAPI)", "setting": "[1]; low concentration", "value": "down regulates"}, {"measurement": "inhibition of Supt4h/NGN interaction (luciferase activity)", "setting": "[2]", "value": "inhibiting the interaction between Supt4h/NGN"}, {"measurement": "mutant Huntingtin protein level", "setting": "[3]", "value": "preferentially decrease mutant Huntingtin protein in a dose dependent manner; also recorded: reduced mutant huntingtin expression in a dose dependent manner"}, {"measurement": "total Huntingtin protein expression level", "setting": "[4]", "value": "little effect"}]}]}
